Read-outs that look alike come from different tables or passages of the source.
Assays:
α7 nAChR = α7 nAChR (Homo sapiens, UniProt P36544); details: nAChR subtype: α7; cited from earlier work
[1] = cited from earlier work
[2] = cited from earlier work; remark: listed apart in the source
β2* nAChR = β2* nAChR (Homo sapiens, UniProt P17787); details: nAChR subtype: β2; cited from earlier work
[3] = in vivo; cited from earlier work
[4] = test system: α4β2* nAChR knockout mice
From the text: Multiple receptors exist throughout the body with α1β1*, α3β4* and α7 nAChRs being the major subtypes in the peripheral nervous system and α4β2*, α6β2* and α7 nAChRs the primary ones in the brain. The *asterisk denotes the presence of other nAChR subunits in the receptor.

rats and mice = details: oral application, injection and slow-release minipumps
[5] = test system: patients with idiopathic PD and levodopa induced dyskinesias (LIDs)
Experimental: At the time the study was performed (2009), there was no FDA accepted instrument for measuring treatment efficacy for LIDs. Therefore, several secondary objectives were utilized to assess efficacy including the Unified Dyskinesia Rating Scale (UDysRS).
A total of 65 male and female subjects with idiopathic PD with LIDs were randomized in the study. The study consisted of 4 phases (FIG. 6A): screening phase (up to 3 weeks), double-blind treatment phase (10 weeks), taper phase (2 weeks), and follow-up phase (2 weeks). The approximate duration of the study for each subject was 17 weeks. […] During the double-blind treatment phase, dosing was begun at Visit 0 at 1 mg every 6 hours (total daily dose [TDD] = 4 mg/day) and escalated upwards at 2-week intervals as follows: 2 mg every 6 hours (TDD = 8 mg/day) at Visit 1 (Week 2); 4 mg every 6 hours (TDD = 16 mg/day) at Visit 2 (Week 4); 6 mg every 6 hours (TDD = 24 mg/day) at Visit 3 (Week 6). Subjects were maintained on 24 mg/day for 4 weeks. The subsequent taper phase (2 weeks total), beginning at Visit 4 (Week 10), consisted of 9 days of drug taper and 5 days off drug prior to Visit 5 (final safety visit). […] Ondansetron was provided by the sponsor and dispensed with each dose escalation step with instructions to use it for nausea and vomiting only during the first 4 days following dose initiation or escalation. […] No other dose down-titration was allowed. Table 5. Dose Escalation Schedule
A total of 65 patients with idiopathic PD and levodopa induced dyskinesias (LIDs) were randomized. Patients were required to have a diagnosis of idiopathic PD and be within a Hoehn & Yahr Stage II - IV while in a peak "ON" state(levodopa in a therapeutic range). They had to have moderate to severely disabling LIDs for at least 25% of the waking day, as determined by Questions 32 and 33 in Part II of the UPDRS and a Mini-Mental State Examination (MMSE) score of ≥26. Patients with atypical Parkinson disorders, prior deep brain stimulation (DBS), unstable angina, a history of ventricular arrhythmias, or active peptic ulcer or a history of schizophrenia, schizoaffective disorder, or bipolar disease were excluded. Patients who actively smoked were also excluded. Table 9: Demographics
The drug, or a placebo identical in appearance and packaging, was administered orally 4 times a day in a blinded fashion. Patients were examined while in an "ON" state, when levodopa was in a therapeutic range. During the treatment phase, dosing was begun at 1 mg every 6 hours (total daily dose=4 mg/day) and escalated upwards at 2-week intervals as follows: 2 mg every 6 hours at Visit 1; 4 mg every 6 hours at Visit 2; 6 mg every 6 hours at Visit 3. Patients were maintained on 24 mg/day for 4 weeks. All patients, study site personnel, raters and the sponsor were blinded to treatment assignment.
The original UPDRS scale was used. […] In the UPDRS Part II, Question 13 is on Falling unrelated to Freezing. […] In Part II, Question 14 is on Freezing when Walking. This is a 5-point item and has two variables freezing and falls. […] Questions 13 and 14 were compared separately (Table 11). […] Table 10: UPDRS Part II (ADL), UPDRS Part III (Motor Examination)
LIDs were assessed by the UDysRS, the main measure of LIDs (Table 12). […] The study was conducted in accordance with the Declaration of Helsinki and Good Clinical Practice Guidelines. All sites received approval from an institutional review board and written informed consent was obtained from each patient prior to participation. Table 12. Unified Dyskinesia Rating Scale (UDysRS)
All hypotheses were tested using 2-sided tests with alpha set at the 0.050 level of significance. In general, efficacy data were summarized by treatment group, and safety data were summarized by treatment group and overall.

[6] = test system: patients with idiopathic PD and levodopa induced dyskinesias (LIDs); details: for worsening of Parkinson symptoms (UPDRS Part III, Hoehn and Yahr scales): during the study
Experimental: Efficacy was measured with the Unified Dyskinesia Rating Scale (UDysRS), a semi- quantitative assessment, FDA-validated instrument to assess gait, balance and dyskinesia in PD. […] Dosing was begun at 1 mg every 6 hours to a final dose of 24 mg per day.
All hypotheses were tested using 2-sided tests with alpha set at the 0.050 level of significance. In general, efficacy data were summarized by treatment group, and safety data were summarized by treatment group and overall. In all analyses, assumptions such as normality and homogeneity of variance were examined prior to conducting the proposed parametric statistical procedures. Categorical variables were analyzed by Fisher's exact 2- tailed test and continuous variables were tested under 2-sample t-tests. The equality of variances was examined using an F-test before applying the 2-sample t-test.

[7] = test system: rats with a unilateral 6-hydroxydopamine lesion; test: LIDs in rats with a unilateral 6-hydroxydopamine lesion; type: in vivo; details: parkinsonian rat model of LIDs
[8] = Phase 2 data used for sample size calculation

Chain of β2* nAChR (P17787 26-502): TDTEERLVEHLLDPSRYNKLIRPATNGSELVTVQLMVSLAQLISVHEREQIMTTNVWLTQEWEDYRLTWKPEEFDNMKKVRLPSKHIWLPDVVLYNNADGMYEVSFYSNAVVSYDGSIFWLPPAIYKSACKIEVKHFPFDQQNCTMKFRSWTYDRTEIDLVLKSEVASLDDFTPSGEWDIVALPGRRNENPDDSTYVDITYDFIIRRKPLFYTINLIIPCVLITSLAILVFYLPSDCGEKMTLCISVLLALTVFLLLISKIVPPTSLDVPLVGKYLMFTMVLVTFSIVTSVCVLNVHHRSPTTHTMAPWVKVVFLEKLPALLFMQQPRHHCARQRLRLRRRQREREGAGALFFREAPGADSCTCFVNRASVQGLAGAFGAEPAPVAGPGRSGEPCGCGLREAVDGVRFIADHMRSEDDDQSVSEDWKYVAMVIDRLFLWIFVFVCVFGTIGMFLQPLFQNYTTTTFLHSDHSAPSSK
Chain of α7 nAChR (P36544 23-502): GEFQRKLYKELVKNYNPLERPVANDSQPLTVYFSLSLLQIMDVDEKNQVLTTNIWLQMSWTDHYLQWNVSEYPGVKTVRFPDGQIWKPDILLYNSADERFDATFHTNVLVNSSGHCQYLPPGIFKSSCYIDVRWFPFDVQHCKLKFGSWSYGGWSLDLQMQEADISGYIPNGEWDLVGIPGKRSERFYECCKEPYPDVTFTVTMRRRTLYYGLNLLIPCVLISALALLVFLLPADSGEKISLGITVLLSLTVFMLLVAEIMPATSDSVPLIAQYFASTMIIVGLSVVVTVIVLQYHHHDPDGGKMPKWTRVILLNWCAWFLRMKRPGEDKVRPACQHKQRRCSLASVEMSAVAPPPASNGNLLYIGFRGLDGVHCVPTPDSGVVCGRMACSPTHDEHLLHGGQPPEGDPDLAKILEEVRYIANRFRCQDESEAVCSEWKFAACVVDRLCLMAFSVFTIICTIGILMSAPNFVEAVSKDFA

## c1cc2cc(-c3ccc(O[C@H]4CN5CCC4CC5)nn3)ccc2[nH]1 [ABT-107]
α7 nAChR
  Ki: 0.5 nM

## C[C@@](Cc1ccc(O)c(O)c1)(NN)C(=O)O [Carbidopa, (-)-L-α-hydrazino-α-methyl-β-(3,4-dihydroxybenzene) propanoic acid monohydrate]
[1]; in vivo
  reduction of the amount of levodopa required to produce a given response: about 75%
[2]
  solubility in water: slightly soluble in water

## N[C@@H](Cc1ccc(O)c(O)c1)C(=O)O [Levodopa, (S)-2-amino-3-(3,4-dihydroxyphenyl) propanoic acid]
[1]; without carbidopa
  plasma half-life of levodopa: 50 min
[2]
  solubility in water: slightly soluble in water

## Cc1ncccc1OC[C@@H]1CCCN1 [ABT-089]
β2* nAChR
  Ki: 17 nM

## CN1CCC[C@H]1c1cccnc1 [Nicotine, (S)-3-[1-methylpyrrolidin-2-yl]pyridine, reference compound]
[3]
  oral bioavailability: approximately 30%
[4]
  antidyskinetic effect: did not exert an antidyskinetic effect
Rats and mice
  reduction of LIDs: reduced LIDs
[5]; [8]
  UDysRS part III, Week 10 result; change from baseline, mean: 5.2
  UDysRS walking, Week 10 result; change from baseline, mean: 4.4
[5]; Visit 4 (Week 10), 21 responders, p = 0.0048 vs placebo
  PGI-C responders (subjects with a score of 1, 2, or 3): 77.8%
[5]; Visit 4 (Week 10), p = 0.0453
  number of LF-ADL responders (subjects with ≥25% reduction from baseline), difference between treatment groups: statistically significant difference
[5]; human, in vivo
  Gait-subtest of the UDysRS versus placebo: statistically superior to placebo
  patient- and physician-rated assessments of efficacy versus placebo: superior to placebo
[6]
  worsening of Parkinson symptoms (UPDRS Part III, Hoehn and Yahr scales): no worsening of Parkinsonian symptoms
[6]; listed as nicotine
  worsening of Parkinson symptoms (UPDRS Part III, Hoehn and Yahr scales): did not cause any worsening of the PD symptoms
[6]; of 35 randomized
  subjects who completed the study: 25 subjects
  subjects who withdrew because of AEs: 6 subjects
  subjects who withdrew because of protocol violations: 2 subjects
  subjects who withdrew from the study: 10 subjects
[6]; of 35 randomized, listed as nicotine
  subjects who withdrew because of AEs: Six

## Cc1ccc(-c2ccc(OC3CN4CCC3CC4)cn2)cc1 (centres unmarked) [AQW051]
α7 nAChR
  Ki: 27 nM

## OCCCCC#Cc1cncc(OC[C@@H]2CCN2)c1 [sazetidine]
[7]
  reduction of LIDs: reduced LIDs to varying extents

## CN[C@@H](C)C/C=C/c1cncc(OC(C)C)c1 [TC-2696]
[7]
  reduction of LIDs: reduced LIDs to varying extents

## c1cncc(OC[C@@H]2CCN2)c1 [A-85380]
[7]
  reduction of LIDs: reduced LIDs to varying extents

## O=C(c1ccc(Cl)o1)N1CC2CNCC2C1 (centres unmarked) [AZD 1446]
β2* nAChR
  Ki: 30 nM

## Clc1cc(N2C[C@@H]3CN[C@@H]3C2)cnc1Cl [ABT-894]
β2* nAChR
  Ki: 0.3 nM

## c1cnc2cc3c(cc2n1)[C@@H]1CNC[C@H]3C1 [Varenicline]
[7]
  reduction of LIDs: reduced LIDs to varying extents

From EP3727043B1 (Golden Gait Biotech, S.L., priority 2017, dated 2019)
